This passage reports solubility in hexane results from US8828474B2, “Apparatus and methods for loading a drug eluting medical device” (Medtronic Vascular, Inc., priority 2009, dated 2014).

The nature of the series: Solubility of sirolimus in solvents / dispersion media. It is filed as physicochemical. The protocol:
Solution 524 is a homogeneous mixture in which therapeutic substance 112 dissolves within a solvent or a solvent mixture. In one embodiment, solution 524 includes a high-capacity solvent 528 which is an organic solvent that has a high capacity to dissolve therapeutic substance 112. High capacity as utilized herein is defined as an ability to dissolve therapeutic substance 112 at concentrations greater than 500 mg of substance per milliliter of solvent. Examples of high capacity drug dissolving solvents for sirolimus and similar substances include but are not limited to tetrahydrofuran (THF), di-chloromethane (DCM), chloroform, and di-methyl-sulfoxide (DMSO). In addition to the high-capacity solvent, solution 524 may include an excipient 526 in order to assist in drug elution. In one embodiment, excipient 526 may be a surfactant such as but not limited to sorbitan fatty acid esters such as sorbitan monooleate and sorbitan monolaurate, polysorbates such as polysorbate 20, polysorbate 60, and polysorbate 80, cyclodextrins such as 2-hydroxypropyl-beta-cyclodextrin and 2,6-di-O-methyl-beta-cyclodextrin, sodium dodecyl sulfate, octyl glucoside, and low molecular weight poly(ethylene glycol)s. In another embodiment, excipient 526 may be a hydrophilic agent such as but not limited to salts such as sodium chloride and other materials such as urea, citric acid, and ascorbic acid. […]

With `CO[C@H]1C[C@@H]2CC[C@@H](C)[C@@](O)(O2)C(=O)C(=O)N2CCCC[C@H]2C(=O)O[C@H]([C@H](C)C[C@@H]2CC[C@@H](O)[C@H](OC)C2)CC(=O)[C@H](C)/C=C(\C)[C@@H](O)[C@@H](OC)C(=O)[C@H](C)C[C@H](C)/C=C/C=C/C=C/1C` [sirolimus], the solubility in hexane entry is recorded as “insoluble”.
